Results published in US12383524B2, “Therapeutic compositions of undecylenic acid and arginine” (Wintermute Biomedical, Inc., priority 2018, dated 2025).

Tests used:
[1] = tested on: methicillin-resistant Staphylococcus aureus (MRSA); assay: In vitro bactericidal assay against MRSA isolates (viable CFU/mL after treatment); conditions: average of three MRSA isolates, 24 hours, varying CA concentration
Description: Note that efficacy is reported in terms of the viable bacterial concentration (in CFU/mL) remaining after 24 hours of treatment with the drug product (in compliance with CLSI guidelines).
In this example, bacteria (MRSA isolates) are put onto fresh plates and allowed to grow for 30 hours. A suspension inoculum is made from the plates (e.g., a 1 McFarland solution in sterile water), from which the turbidity may be optically read. A standard inoculum may then be cultured in media and 100 μL of that solution combined with 100 μL of drug product and grown at various dilutions for 16-20 hrs. Duplicates may then be examined (e.g., following pelleting at 7,000 RPM for 15 min, resuspended in PBS and serial dilutions plated and grown for 24 hrs.). Duplicate plates at multiple dilutions may then be imaged and colonies counted.
For example, in each of these examples in FIG. 20, the fatty acid to amino acid in the compositions was at a ratio of about 1:0.76 (fatty acid:amino acid) by weight when diluted and used to treat MRSA. GS-1, GS-2 and GS-3 all had fatty acid:amino acid aqueous mixtures with approximately 32% w/w of total active pharmaceutical ingredients (APIs), which were diluted at 1:128 in water, resulting in a concentration of about 0.25% w/w total APIs. […]

[2] = tested on: bacteria; assay: Variation of the amino acid combined with UCA, bactericidal effect; assay type: cell-based
Description: Thus in some variations, the amino acid may be limited to a charged (and particularly the positively charged) amino acids, such as amino acid having an electrically charged basic side chain.

Row | Structure (SMILES) | effect of CA on efficacy of the UCA and LARG composition [1] | bactericidal effect when used as the amino acid with the fatty acid [2]
1 | CCCCCCCCCCCCCCCCO [CA, cetyl alcohol] | clear inhibitory effect | 
2 | N=C(N)NCCC[C@@H](N)C(=O)O [D-Arginine] |  | ineffective
